From patent publication US9242963B2, “Organic compounds” (NOVARTIS AG, priority 2008, dated 2016)

What was measured:
[1] = target: T1, CYP11B2 (aldosterone synthase) (Homo sapiens, UniProt P19099); test: Aldosterone cell secretion in NCI-H295R cells; assay type: cell-based; conditions: 24 hours incubation with cell stimulant
T1 construct: the NCI-H295R cells have CYP11B2 (aldosterone synthase) and CYP11B1 (steroid 11-hydroxylase); host or cells: NCI-H295R
T1 sequence (P19099 25-503): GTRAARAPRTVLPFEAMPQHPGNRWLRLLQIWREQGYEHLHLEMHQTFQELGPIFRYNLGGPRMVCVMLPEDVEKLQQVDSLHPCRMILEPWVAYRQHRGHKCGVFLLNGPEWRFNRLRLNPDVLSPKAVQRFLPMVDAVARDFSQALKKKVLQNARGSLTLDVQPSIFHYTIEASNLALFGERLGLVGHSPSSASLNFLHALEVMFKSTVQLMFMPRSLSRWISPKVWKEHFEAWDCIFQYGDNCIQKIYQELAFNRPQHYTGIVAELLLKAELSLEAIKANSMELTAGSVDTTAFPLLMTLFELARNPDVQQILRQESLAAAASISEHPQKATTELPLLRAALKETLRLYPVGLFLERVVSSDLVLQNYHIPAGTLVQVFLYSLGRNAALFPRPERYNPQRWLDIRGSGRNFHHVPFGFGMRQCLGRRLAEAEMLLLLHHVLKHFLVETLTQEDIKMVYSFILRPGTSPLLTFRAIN
From the text: (§1) The activities of a compound according to the present invention can be assessed by the following in vitro method well-described in the art.
(§2) In particular, the inhibition of aldosterone and cortisol secretion in vitro can be determined by the following assay.
(§3) The cell line NCI-H295R was originally isolated from an adrenocortical carcinoma and has been characterized in the literature through the stimulable secretion of steroid hormones and the presence of the enzymes essential for steroidogenesis. […]
(§4) For in vitro measurement of aldosterone and cortisol activity, human adrenocortical carcinoma NCI-H295R cells are seeded in NBS 96-well plates at a density of 25,000 cells/well in 100 μL of a growth medium containing DMEM/F12 supplemented with 10% FCS, 2.5% Nu-serum, 1 μg ITS/ml, and 1× antibiotic/antimycotic. […] At the end of incubation, the excretion of aldosterone and cortisol into the culture medium can be detected and quantified by commercially available, specific monoclonal antibodies in radioimmunoassays in accordance with the manufacturer's instructions.
(§5) Measurement of aldosterone can also be performed using a 96-well plate format. […] The amount of aldosterone in each sample is calculated by comparing with a standard curve generated using known quantities of the hormone. […]

[2] = target: T2, CYP11B1 (steroid 11-hydroxylase) (Homo sapiens, UniProt P15538); test: Cortisol cell secretion in NCI-H295R cells; assay type: cell-based; conditions: 24 hours incubation with cell stimulant
T2 construct: the NCI-H295R cells have CYP11B2 (aldosterone synthase) and CYP11B1 (steroid 11-hydroxylase); host or cells: NCI-H295R
T2 sequence (P15538 25-503): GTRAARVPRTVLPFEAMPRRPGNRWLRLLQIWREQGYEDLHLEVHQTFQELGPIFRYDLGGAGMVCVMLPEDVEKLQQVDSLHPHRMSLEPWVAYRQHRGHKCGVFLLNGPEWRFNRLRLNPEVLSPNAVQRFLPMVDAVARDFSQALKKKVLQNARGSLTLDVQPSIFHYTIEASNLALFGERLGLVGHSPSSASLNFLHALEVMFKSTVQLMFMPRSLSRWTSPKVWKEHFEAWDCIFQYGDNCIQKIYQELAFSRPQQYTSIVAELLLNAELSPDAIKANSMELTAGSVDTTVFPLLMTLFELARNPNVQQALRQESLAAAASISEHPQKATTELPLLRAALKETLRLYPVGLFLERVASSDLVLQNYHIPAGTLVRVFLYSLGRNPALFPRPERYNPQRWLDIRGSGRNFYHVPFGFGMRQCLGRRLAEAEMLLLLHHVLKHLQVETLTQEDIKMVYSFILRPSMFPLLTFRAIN
From the text: as §1, §2, §3, §4, §5

| IC50 [1] [nM] | IC50 [2] [nM] | SMILES |
| --- | --- | --- |
| 32 | 600 | CCS(=O)(=O)NC(C)c1cncc(-c2c(C#N)c3ccc(Cl)cc3n2C)c1 (racemic) [216 (one enantiomer), (R) and (S)-ethanesulfonic acid {1-[5-(6-chloro-3-cyano-1-methyl-1H-indol-2-yl)-pyridin-3-yl]-ethyl}-amide] |
| 35 | 1230 | CCS(=O)(=O)NC(C)c1cncc(-c2c(C#N)c3ccc(Cl)cc3n2C)c1 (racemic) [216 (other enantiomer), (R) and (S)-ethanesulfonic acid {1-[5-(6-chloro-3-cyano-1-methyl-1H-indol-2-yl)-pyridin-3-yl]-ethyl}-amide] |
